Assay results as given in patent US20110034414A1, “FLUOROALKYLOXY ALKANES, PROCESS FOR PRODUCTION AND USES THEREOF” (AL.CHI.MI.A. S.R.L., priority 2008, published 2011).

How the values were obtained:
[1] = Clarity (solubility) of mixtures of fluoroalkyloxy alkane with silicone oil 5,000 cS; assay type: physicochemical; design: key: ++: the mixture is clear after stirring at room temperature; +: the mixture is opalescent after stirring at room temperature, it becomes clear after heating at 37° C
Experimental: Various mixtures comprising a fluoroalkyloxy alkane obtained according to Examples 1, 3 and 4 and a silicone oil having a viscosity of 5,000 cS (at 20° C.) were prepared.
Table 4 contains the amounts of fluoroalkyloxy alkane in the various mixtures (expressed as weight % on the total weight of the mixture), and the result in terms of clarity of the solution at different temperatures.

[2] = Clarity (solubility) of mixtures of fluoroalkyloxy alkane with silicone oil 1,000 cS; assay type: physicochemical; design: key: ++: the mixture is clear after stirring at room temperature; +: the mixture is opalescent after stirring at room temperature, it becomes clear after heating at 37° C
Experimental: Various mixtures comprising a fluoroalkyloxy alkane obtained according to Examples 1, 3 and 4 and a silicone oil having a viscosity of 1,000 cS (at 20° C.) were prepared.
Table 3 contains the amounts of fluoroalkyloxy alkane in the various mixtures (expressed as weight % on the total weight of the mixture), and the result in terms of clarity of the solution at different temperatures.

[3] = 33% by weight fluoroalkyloxy alkane in silicone oil 5,000 cS (at 20° C.)
[4] = 43% by weight fluoroalkyloxy alkane in silicone oil 5,000 cS (at 20° C.)
[5] = 50% by weight fluoroalkyloxy alkane in silicone oil 5,000 cS (at 20° C.)
[6] = 60% by weight fluoroalkyloxy alkane in silicone oil 5,000 cS (at 20° C.)
[7] = 90% by weight fluoroalkyloxy alkane in silicone oil 5,000 cS (at 20° C.)
[8] = 33% by weight fluoroalkyloxy alkane in silicone oil 1,000 cS (at 20° C.)
[9] = 43% by weight fluoroalkyloxy alkane in silicone oil 1,000 cS (at 20° C.)
[10] = 50% by weight fluoroalkyloxy alkane in silicone oil 1,000 cS (at 20° C.)
[11] = 60% by weight fluoroalkyloxy alkane in silicone oil 1,000 cS (at 20° C.)
[12] = 90% by weight fluoroalkyloxy alkane in silicone oil 1,000 cS (at 20° C.)

Row | Structure (SMILES) | clarity of the solution [1, 3] | clarity of the solution [1, 4] | clarity of the solution [1, 5] | clarity of the solution [1, 6] | clarity of the solution [1, 7] | clarity of the solution [2, 8] | clarity of the solution [2, 9] | clarity of the solution [2, 10] | clarity of the solution [2, 11] | clarity of the solution [2, 12] | clarity of the solution ([1]; 20% by weight fluoroalkyloxy alkane in silicone oil 5,000 cS (at 20° C.)) | clarity of the solution ([2]; 20% by weight fluoroalkyloxy alkane in silicone oil 1,000 cS (at 20° C.))
1 | CCCOCCC(F)(F)C(F)(F)C(F)(F)C(F)(F)F [CF3(CF2)3CH2CH2O(CH2)2CH3] | ++ | ++ | ++ | ++ | ++ | ++ | ++ | ++ | ++ | ++ | – | –
2 | CCCCCOCCC(F)(F)C(F)(F)C(F)(F)C(F)(F)C(F)(F)C(F)(F)F [CF3(CF2)5CH2CH2O(CH2)4CH3] | ++ | + | + | – | – | ++ | + | + | – | – | ++ | ++
3 | CCCCCOCCC(F)(F)C(F)(F)C(F)(F)C(F)(F)F [CF3(CF2)3CH2CH2O(CH2)4CH3] | ++ | ++ | ++ | ++ | ++ | ++ | ++ | ++ | ++ | ++ | – | –
